Results published in patent publication US20230150924A1, “NOVEL COMPOUND HAVING CANCER METASTASIS INHIBITORY ACTIVITY, PREPARATION METHOD THEREFOR, AND PHARMACEUTICAL COMPOSITION FOR INHIBITING CANCER METASTASIS AND INVASION OR TREATING COLORECTAL CANCER, COMPRISING COMPOUND” (CELLGENTEK CO., LTD., priority 2019, published 2023).

Experiments:
KAI1 promoter = KAI1 promoter luciferase reporter assay in transfected Caco2 cells; format: cell-based, human; conditions: 1 μM compound, 16 hours, transfected Caco2 cells, luciferase activity relative to DMSO control (=1); for fold induction at 1 µM: Homo sapiens, Caco-2, 16 h, read-out: Relative KAI promoter activity
Description: Experiments were conducted to evaluate the metastasis-related promoter activity-increasing effects of the compounds according to the present invention. Specifically, the KAI1 promoter reporter vector was used. In this case, the pRL-TK vector, a vector expressing renilla luciferase, was used as an internal control indicating the transfection efficiency in each transfected well.
First, 24 hours before transfection, 2×10^6 human colon cancer cell line, Caco2) cells were cultured in 10 ml of DMEM containing 10% FBS and 1% penicillin/streptomycin on a 100-mm-diameter plate, and then transformed with 5 μg of a pRL-TK vector mixture containing a transfection reagent and the KAI1 promoter, and then cultured in a 5% CO2 incubator at 37° C. for 48 hours. Thereafter, the adherent cells were detached using trypsin and counted using a hemacytometer, and then 5×10^3 transfected Caco2 cells in 100 μl of DMEM containing 10% FBS and 1% penicillin/streptomycin were seeded into each well of a 96-well plate and cultured in a 5% CO2 incubator at 37° C. for 24 hours. Next, 1 μM of each of the 305 compounds prepared in Examples 1 to 305 was added to each well, and after 16 hours, 100 μl of a lysis buffer for analysis containing a luciferase substrate was added, and the cells were lysed with stirring for 20 minutes. After completion of lysis, the cells were measured for luciferase activity using a luciferase reporter assay system (Promega, USA). […] In addition, data were analyzed at a significance level of p<0.05 by one-way ANOVA (Tukey's HSD), and SPSS 17.0 (Chicago, USA) statistical program was used. In Table 14 to 20, PHA is the PHA-665752, and KIT is KITENIN.

[1] = test system: invasion of colorectal cancer cells; test: In vivo relative invation (invasion; EV and KITENIN controls, no method described); conditions: relative to EV (=1); KIT = KITENIN

| Compound | fold induction at 1 µM (KAI1 promoter) | In vivo relative invation [1] | Relative KAI promoter activity (KAI1 promoter) |
| --- | --- | --- | --- |
| CCCCC(=O)NCC(=O)c1ccc(Cl)cc1 [Example 61, N-(2-(4-chlorophenyl)-2-oxoethyl)pentanamide] | 0.72 | 1 | – |
| COc1ccc(C(=O)NCC(=O)c2ccc(Cl)cc2)cc1 [Example 62, N-(2-(4-chlorophenyl)-2-oxoethyl)-4-methoxybenzamide] | – | 1.122 | 1.03 |
| O=C(CNS(=O)(=O)c1cccc([N+](=O)[O-])c1)c1ccc(Cl)cc1 [Example 63, N-(2-(4-chlorophenyl)-2-oxoethyl)-3-nitrobenzenesulfonamide] | 0.7 | 1.102 | – |
| O=C(CNC(=O)c1ccc(F)cc1F)c1ccc(Cl)cc1 [Example 64, N-(2-(4-chlorophenyl)-2-oxoethyl)-2,4ifluorobenzamide] | 1.35 | 1.083 | – |
| COCC(=O)NCC(=O)c1ccc(Cl)cc1 [Example 65, N-(2-(4-chlorophenyl)-2-oxoethyl)-2-methoxyacetamide] | 0.84 | 1.191 | – |
| CC(C)(C)C(=O)NCC(=O)c1ccc(Cl)cc1 [Example 66, N-(2-(4-chlorophenyl)-2-oxoethyl)pivalamide] | 0.87 | 1.168 | – |
| O=C(CNS(=O)(=O)c1ccc(F)cc1)c1ccc(Cl)cc1 [Example 67, N-(2-(4-chlorophenyl)-2-oxoethyl)-4-fluorobenzenesulfonamide] | 0.87 | 1.175 | – |
| Cc1ccc(S(=O)(=O)NCC(=O)c2ccc(Cl)cc2)cc1 [Example 68, N-(2-(4-chlorophenyl)-2-oxoethyl)-4-methylbenzenesulfonamide] | 0.88 | 1.125 | – |
| O=C(CNS(=O)(=O)c1ccc(Cl)cc1)c1ccc(Cl)cc1 [Example 69, 4-chloro-N-(2-(4-chlorophenyl)-2-oxoethyl)benzenesulfonamide] | 0.84 | 1.095 | – |
| O=C(CNS(=O)(=O)Cc1ccccc1)c1ccc(Cl)cc1 [Example 70, N-(2-(4-chlorophenyl)-2-oxoethyl)-1-phenylmethanesulfonamide] | 0.81 | 1.274 | – |
| COc1ccc(S(=O)(=O)NCC(=O)c2ccc(Cl)cc2)cc1 [Example 71, N-(2-(4-chlorophenyl)-2-oxoethyl)-4-methoxybenzenesulfonamide] | 0.85 | 1.135 | – |
| O=C(CNC(=O)c1cc(C(F)(F)F)cc(C(F)(F)F)c1)c1ccc(Cl)cc1 [Example 72, N-(2-(4-chlorophenyl)-2-oxoethyl)-3,5-bis(trifluoromethyl)benzamide] | 0.8 | 1.044 | – |
| O=C(CNC(=O)c1ccccc1C(F)(F)F)c1ccc(Cl)cc1 [Example 73, N-(2-(4-chlorophenyl)-2-oxoethyl)-2-(trifluoromethyl)benzamide] | 0.99 | 1.116 | – |
| O=C(CNC(=O)c1cccc(C(F)(F)F)c1)c1ccc(Cl)cc1 [Example 74, N-(2-(4-chlorophenyl)-2-oxoethyl)-3-(trifluoromethyl)benzamide] | 0.78 | 1.17 | – |
| O=C(CNC(=O)c1ccc(C(F)(F)F)cc1)c1ccc(Cl)cc1 [Example 75, N-(2-(4-chlorophenyl)-2-oxoethyl)-4-(trifluoromethyl)benzamide] | 0.71 | 1.283 | – |
| O=C(CNC(=O)c1ccc(F)cc1Cl)c1ccc(Cl)cc1 [Example 76, 2-chloro-N-(2-(4-chlorophenyl)-2-oxoethyl)-4-fluorobenzamide] | 0.83 | 1.12 | – |
| O=C(CNC(=O)c1cccc([N+](=O)[O-])c1)c1ccc(Cl)cc1 [Example 77, N-(2-(4-chlorophenyl)-2-oxoethyl)-3-nitrobenzamide] | 0.92 | 1.274 | – |

| Compound | fold induction at 1 µM (KAI1 promoter) | In vivo relative invation [1] | Relative KAI promoter activity (KAI1 promoter) |
| --- | --- | --- | --- |
| O=C(CNC(=O)c1ccc(F)c(F)c1)c1ccc(Cl)cc1 [Example 78, N-(2-(4-chlorophenyl)-2-oxoethyl)-3,4ifluorobenzamide] | 0.9 | 1.17 | – |
| O=C(CNC(=O)c1cc(Cl)cc(Cl)c1)c1ccc(Cl)cc1 [Example 79, 3,5-dichloro-N-(2-(4-chlorophenyl)-2-oxoethyl)benzamide] | 1.03 | 1.102 | – |
| O=C(CNC(=O)c1cccc(Cl)c1Cl)c1ccc(Cl)cc1 [Example 80, 2,3-dichloro-N-(2-(4-chlorophenyl)-2-oxoethyl)benzamide] | 0.86 | 1.183 | – |
| O=C(CNC(=O)c1ccc(OC(F)(F)F)cc1)c1ccc(Cl)cc1 [Example 81, N-(2-(4-chlorophenyl)-2-oxoethyl)-4-(trifluoromethoxy)benzamide] | 0.8 | 1.142 | – |
| O=C(CNC(=O)c1cccc(OC(F)(F)F)c1)c1ccc(Cl)cc1 [Example 82, N-(2-(4-chlorophenyl)-2-oxoethyl)-3-(trifluoromethoxy)benzamide] | 0.8 | 1.189 | – |
| Cc1cc(C)cc(C(=O)NCC(=O)c2ccc(Cl)cc2)c1 [Example 83, N-(2-(4-chlorophenyl)-2-oxoethyl)-3,5-dimethylbenzamide] | 0.8 | 1.171 | – |
| O=C(CNC(=O)c1ccccc1OC(F)(F)F)c1ccc(Cl)cc1 [Example 84, N-(2-(4-chlorophenyl)-2-oxoethyl)-2-(trifluoromethoxy)benzamide] | 0.94 | 1.181 | – |
| COc1cc(OC)cc(C(=O)NCC(=O)c2ccc(Cl)cc2)c1 [Example 85, N-(2-(4-chlorophenyl)-2-oxoethyl)-3,5imethoxybenzamide] | 0.96 | 1.206 | – |
| O=C(CNC(=O)c1ccc(-c2ccccc2)cc1)c1ccc(Cl)cc1 [Example 86, N-(2-(4-chlorophenyl)-2-oxoethyl)-[1,1′-biphenyl]-4-carboxamide] | 1.01 | 1.193 | – |
| O=C(CNC(=O)c1ccc(Cl)cc1)c1ccc(Cl)cc1 [Example 87, 4-chloro-N-(2-(4-chlorophenyl)-2-oxoethyl)benzamide] | 0.91 | 1.218 | – |
| CN(C)c1ccc(C(=O)CNC(=O)c2ccc(Cl)cc2)cc1 [Example 88, 4-chloro-N-(2-(4-(dimethylamino)phenyl)-2-oxoethyl)benzamide] | 1.35 | 0.9216 | – |
| CC(Oc1ccccc1)C(=O)NCC(=O)c1ccc(N(C)C)cc1 (stereo not drawn) [Example 89, N-(2-(4-(dimethylamino)phenyl)-2-oxoethyl)-2-phenoxypropanamide] | 1.27 | 1.074 | – |
| CN(C)c1ccc(C(=O)CNC(=O)c2ccccc2F)cc1 [Example 90, N-(2-(4-(dimethylamino)phenyl)-2-oxoethyl)-2-fluorobenzamide] | 1.88 | 1.124 | – |
| CN(C)c1ccc(C(=O)CNC(=O)c2ccc(F)cc2)cc1 [Example 91, N-(2-(4-(dimethylamino)phenyl)-2-oxoethyl)-4-fluorobenzamide] | 2.44 | 1.058 | – |
| CN(C)c1ccc(C(=O)CNC(=O)c2ccco2)cc1 [Example 92, N-(2-(4-(dimethylamino)phenyl)-2-oxoethyl)furan-2-carboxamide] | 2.29 | 1.064 | – |
| CN(C)c1ccc(C(=O)CNC(=O)c2ccccc2Cl)cc1 [Example 93, 2-chloro-N-(2-(4-(dimethylamino)phenyl)-2-oxoethyl)benzamide] | 2.48 | 1.091 | – |
